According to patent US20060229338A1, “2,3'-bipyridines derivatives as selective cox-2 inhibitors” (priority 2003, published 2006):

Key:
COX-2 = target: T1, COX-2 (Homo sapiens, UniProt P35354); assay: COX-2 activity in human whole blood (PGE2 by EIA after LPS induction); type: cell-based; conditions: for IC50: LPS 10 μg/ml, 24 h at 37° C., PGE2 levels
T1 construct: incubated in the presence of LPS (10 μg/ml) for 24 h at 37° C. in order to induce the COX-2 expression; from tissue; host or cells: fresh heparinized human whole blood from healthy volunteers, LPS-stimulated
T1 sequence (P35354 18-604): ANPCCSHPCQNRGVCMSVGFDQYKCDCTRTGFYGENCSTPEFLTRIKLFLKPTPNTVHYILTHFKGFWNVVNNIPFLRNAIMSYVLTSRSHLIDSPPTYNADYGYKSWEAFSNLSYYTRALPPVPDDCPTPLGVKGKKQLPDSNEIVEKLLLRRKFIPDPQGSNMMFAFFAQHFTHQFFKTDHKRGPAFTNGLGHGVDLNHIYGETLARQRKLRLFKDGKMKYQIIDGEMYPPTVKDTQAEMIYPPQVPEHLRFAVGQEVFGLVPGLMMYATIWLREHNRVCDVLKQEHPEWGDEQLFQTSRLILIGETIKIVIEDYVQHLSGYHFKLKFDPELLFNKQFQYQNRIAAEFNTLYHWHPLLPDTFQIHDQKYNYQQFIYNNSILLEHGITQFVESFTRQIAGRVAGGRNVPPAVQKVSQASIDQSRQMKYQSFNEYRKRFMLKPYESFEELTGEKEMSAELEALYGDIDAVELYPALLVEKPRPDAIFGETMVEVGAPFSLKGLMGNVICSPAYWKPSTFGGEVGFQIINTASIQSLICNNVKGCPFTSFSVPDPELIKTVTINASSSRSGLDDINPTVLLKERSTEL
Procedure: (§1) COX-1 and COX-2 Activities in Human Whole Blood
For the COX-2 activity determination, 500 μl aliquots of blood were incubated in the presence of LPS (10 μg/ml) for 24 h at 37° C. in order to induce the COX-2 expression (Patriagnani et al., J. Pharm. Exper. Ther. 271; 1705-1712 (1994)). Plasma was separated by centrifugation (10 min at 13000 rpm) and kept at −30° C. until PGE2 levels were measured using an enzyme immunoassay kit (EIA). The effects of inhibitors were studied by incubating each compound (5 μl aliquots) at five to six different concentrations with triplicate determinations in the presence of LPS for 24 hours. IC50 values were obtained by non-linear regression using InPlot, GraphPad software on an IBM computer.

COX-1 = target: T2, COX-1 (Homo sapiens, UniProt P23219); assay: COX-1 activity in human whole blood (TXB2 by EIA after calcium ionophore A23187); type: cell-based; conditions: 24 h at 37° C., A23187 25 μM, TXB2 levels
T2 construct: Fresh blood from healthy volunteers; from tissue; host or cells: fresh heparinized human whole blood from healthy volunteers
T2 sequence (P23219 24-599): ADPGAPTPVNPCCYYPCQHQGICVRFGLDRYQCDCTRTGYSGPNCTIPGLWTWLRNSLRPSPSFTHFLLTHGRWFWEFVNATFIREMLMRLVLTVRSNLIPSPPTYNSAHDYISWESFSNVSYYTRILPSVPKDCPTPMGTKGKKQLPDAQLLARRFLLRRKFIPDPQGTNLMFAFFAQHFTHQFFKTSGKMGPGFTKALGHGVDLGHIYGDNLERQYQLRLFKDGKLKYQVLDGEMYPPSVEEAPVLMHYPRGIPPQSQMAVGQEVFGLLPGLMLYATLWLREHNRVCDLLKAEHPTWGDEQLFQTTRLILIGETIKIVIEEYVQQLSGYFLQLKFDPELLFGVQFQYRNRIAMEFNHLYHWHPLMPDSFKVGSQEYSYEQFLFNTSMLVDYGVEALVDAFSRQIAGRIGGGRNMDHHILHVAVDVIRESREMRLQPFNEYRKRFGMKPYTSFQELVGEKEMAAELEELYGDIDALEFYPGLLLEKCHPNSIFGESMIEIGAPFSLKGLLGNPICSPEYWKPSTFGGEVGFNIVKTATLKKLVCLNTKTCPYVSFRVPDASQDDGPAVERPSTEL
Procedure: as §1
Fresh blood from healthy volunteers who had not taken any non-steroidal anti-inflammatory drugs for at least 7 days prior to blood extraction was collected in heparinized tubes (20 units of heparin per ml). For the COX-1 activity determination, 500 μl aliquots of blood were incubated with either 5 μl vehicle (dimethylsulphoxide) or 5 μl of a test compound for 24 h at 37° C. Calcium ionophore A23187 (25 μM) was added 20 min before stopping the incubation. Plasma was separated by centrifugation (10 min at 13000 rpm) and kept at −30° C. until TXB2 levels were measured using an enzyme immunoassay kit (EIA).
The effect of the compounds was evaluated by incubating each compound at five to six different concentrations with triplicate determinations. IC50 values were obtained by non-linear regression using InPlot, GraphPad software on an IBM computer.

Row | SMILES | IC50 (COX-2) [µM] | Ratio COX-1/COX-2 (COX-2; ratio of COX-1/COX-2 IC50 values) | IC50 (COX-1) [µM]
1 | Cc1ccc(-c2ncc(Cl)cc2-c2ccc([S+](C)[O-])cc2)cn1 (racemic) [5-chloro-6′methyl-3-[4-(methylsulfinyl)phenyl]-2,3′-bipyridine (racemate), 5-Chloro-6′-methyl-3-[4-(methylsulfinyl)phenyl]-2,3′-bipyridine] | 3.7 | 12.3 | 45.5
2 | Cc1ccc(-c2ncc(Cl)cc2-c2ccc([S+](C)[O-])cc2)cn1 (single isomer, unassigned) [5-chloro-6′methyl-3-[4-(methylsulfinyl)phenyl]-2,3′-bipyridine (Enantiomer 1a), 5-Chloro-6′-methyl-3-[4-(methylsulfinyl)phenyl]-2,3′-bipyridine (Enantiomer 1a)] |  |  | 20.2
3 | Cc1ccc(-c2ncc(Cl)cc2-c2ccc([S+](C)[O-])cc2)cn1 (single isomer, unassigned) [5-chloro-6′methyl-3-[4-(methylsulfinyl)phenyl]-2,3′-bipyridine (Enantiomer 1b), 5-Chloro-6′-methyl-3-[4-(methylsulfinyl)phenyl]-2,3′-bipyridine (Enantiomer 1b)] | 3.5 |  | 77.8
